Earlier results in patent publication US9907752B2, “Bendamustine solid dispersions and continuous infusion” (priority 2014, dated 2018).
≈ marks a conversion by molar mass, not a printed value.

Legend:
[1] = aqueous solution

| SMILES | solubility in DMSO (DMSO) | solubility in water (water) | hydrolysis reaction half times [1] |
| --- | --- | --- | --- |
| OC[C@@H](O)[C@@H](O)[C@H](O)[C@H](O)CO [mannitol] | ~36 mg/mL (≈ 198 mM) | ~36 mg/mL (≈ 198 mM) |  |
| Cn1c(CCCC(=O)O)nc2cc(N(CCCl)CCCl)ccc21 [bendamustine, 4-{5-[Bis(2-chloroethyl)amino]-1-methyl-2-benzimidazolyl}butyric acid] |  |  | measured in hours rather than seconds |
